≈ marks a conversion by molar mass, not a printed value. Where a SMILES comes first, the peptide text is derived from it. [ ]: non-standard residue; d: D form. Aib = CC(C)(N)C(=O)O
Assays:
[1] = Solubility measurement (peptide concentration in saturated solution); details: sodium-phosphate buffer, pH 7.4, aqueous buffer, thermodynamic from solid
Description: Approximately 2 mg of each peptide was added to 500 µl of buffer in 1.5-ml Eppendorf tubes. The tubes were shaken at 25 °C for 2 h on a 900 r.p.m. vortex shaker. The samples were centrifuged at 12,000 r.p.m. for 15 min to remove the precipitate and the supernatant was analyzed by ultraviolet–visible light (UV–vis) spectrometry.

[2] = target: SARS-CoV-2 RBD binding to immobilized ACE2 (Severe acute respiratory syndrome coronavirus 2, UniProt P0DTC2); assay: biochemical
SARS-CoV-2 RBD = SARS-CoV-2 RBD (Severe acute respiratory syndrome coronavirus 2, UniProt P0DTC2); assay: biochemical; type: binding

| SMILES | solubility thermodynamic at 2 h [1] | IC50 [2] | Kd (SARS-CoV-2 RBD; KD (direct binding to RBD)) | kon (SARS-CoV-2 RBD; read-out: ka) |
| --- | --- | --- | --- | --- |
| CC[C@H](C)[C@H](NC(=O)[C@H](CC(C)C)NC(=O)[C@H](CC(=O)O)NC(=O)[C@H](CO)NC(=O)[C@@H](NC(=O)[C@H](CCCNC(=N)N)NC(=O)[C@H](CCSC)NC(=O)[C@H](CO)NC(=O)[C@H](C)NC(=O)[C@H](CCC(=O)O)NC(=O)[C@H](C)NC(=O)[C@H](Cc1c[nH]cn1)NC(=O)CNC(=O)[C@H](CC(C)C)NC(=O)[C@H](CCC(=O)O)NC(=O)[C@H](CC(=O)O)NC(=O)[C@H](CC(C)C)NC(=O)[C@H](CC(C)C)NC(=O)[C@H](CCCNC(=N)N)NC(=O)[C@H](CCSC)NC(=O)[C@@H](NC(=O)[C@H](CCC(=O)O)NC(=O)[C@H](Cc1ccc(O)cc1)NC(=O)[C@@H](NC(=O)[C@H](CCCCN)NC(=O)[C@H](CCC(N)=O)NC(=O)[C@H](CC(C)C)NC(=O)[C@@H](NC(=O)[C@H](Cc1c[nH]c2ccccc12)NC(=O)[C@H](CCC(=O)O)NC(=O)[C@H](CCCCN)NC(=O)[C@@H](N)CC(=O)O)[C@@H](C)CC)[C@@H](C)CC)[C@@H](C)CC)C(C)C)C(=O)N[C@@H](Cc1ccc(O)cc1)C(=O)N[C@@H](CCC(=O)O)C(=O)N[C@@H](Cc1ccccc1)C(=O)N[C@@H](CCSC)C(=O)N[C@@H](CCCCN)C(=O)N[C@@H](CCCCN)C(N)=O [SIH-1] | 17 µM (≈ 78.9 µg/mL) | 2500 to 5000 nM |  |  |
| CC[C@H](C)[C@H](NC(=O)[C@H](CC(C)C)NC(=O)[C@H](CC(=O)O)NC(=O)[C@H](CO)NC(=O)[C@@H](NC(=O)[C@H](CCCNC(=N)N)NC(=O)[C@H](CCSC)NC(=O)[C@H](CO)NC(=O)[C@H](C)NC(=O)[C@H](CCC(=O)O)NC(=O)C(C)(C)NC(=O)[C@H](Cc1c[nH]cn1)NC(=O)CNC(=O)[C@H](CC(C)C)NC(=O)[C@H](CCC(=O)O)NC(=O)[C@H](CC(=O)O)NC(=O)[C@H](CC(C)C)NC(=O)[C@H](CC(C)C)NC(=O)[C@H](CCCNC(=N)N)NC(=O)[C@H](CCSC)NC(=O)[C@@H](NC(=O)[C@H](CCC(=O)O)NC(=O)[C@H](Cc1ccc(O)cc1)NC(=O)[C@@H](NC(=O)[C@H](CCCCN)NC(=O)[C@H](CCC(N)=O)NC(=O)[C@H](CC(C)C)NC(=O)[C@@H](NC(=O)[C@H](Cc1c[nH]c2ccccc12)NC(=O)[C@H](CCC(=O)O)NC(=O)[C@H](CCCCN)NC(=O)[C@@H](N)CC(=O)O)[C@@H](C)CC)[C@@H](C)CC)[C@@H](C)CC)C(C)C)C(=O)N[C@@H](Cc1ccc(O)cc1)C(=O)N[C@@H](CCC(=O)O)C(=O)N[C@@H](Cc1ccccc1)C(=O)N[C@@H](CCSC)C(=O)N[C@@H](CCCCN)C(=O)N[C@@H](CCCCN)C(N)=O [SIH-2] (H-DKEWILQKIYEIMRLLDELGH[Aib]EASMRVSDLIYEFMKK-NH2) | 32 µM (≈ 149 µg/mL) | 1250 to 2500 nM |  |  |
| CC[C@H](C)[C@H](NC(=O)[C@H](CC(C)C)NC(=O)[C@H](CC(=O)O)NC(=O)[C@H](CO)NC(=O)[C@@H](NC(=O)[C@H](CCCNC(=N)N)NC(=O)[C@H](CCSC)NC(=O)[C@H](CO)NC(=O)[C@H](C)NC(=O)[C@H](CCC(=O)O)NC(=O)C(C)(C)NC(=O)[C@H](Cc1c[nH]cn1)NC(=O)[C@@H](C)NC(=O)[C@H](CC(C)C)NC(=O)[C@H](CCC(=O)O)NC(=O)[C@H](CC(=O)O)NC(=O)[C@H](CC(C)C)NC(=O)[C@H](CC(C)C)NC(=O)[C@H](CCCNC(=N)N)NC(=O)[C@H](CCSC)NC(=O)[C@@H](NC(=O)[C@H](CCC(=O)O)NC(=O)[C@H](Cc1ccc(O)cc1)NC(=O)[C@@H](NC(=O)[C@H](CCCCN)NC(=O)[C@H](CCC(N)=O)NC(=O)[C@H](CC(C)C)NC(=O)[C@@H](NC(=O)[C@H](Cc1c[nH]c2ccccc12)NC(=O)[C@H](CCC(=O)O)NC(=O)[C@H](CCCCN)NC(=O)[C@@H](N)CC(=O)O)[C@@H](C)CC)[C@@H](C)CC)[C@@H](C)CC)C(C)C)C(=O)N[C@@H](Cc1ccc(O)cc1)C(=O)N[C@@H](CCC(=O)O)C(=O)N[C@@H](Cc1ccccc1)C(=O)N[C@@H](CCSC)C(=O)N[C@@H](CCCCN)C(=O)N[C@@H](CCCCN)C(N)=O [SIH-3] (H-DKEWILQKIYEIMRLLDEL[dA]H[Aib]EASMRVSDLIYEFMKK-NH2) | 95 µM (≈ 444 µg/mL) | 125 to 250 nM |  |  |
| CC[C@H](C)[C@H](NC(=O)[C@H](CC(C)C)NC(=O)[C@H](CC(=O)O)NC(=O)[C@H](CO)NC(=O)[C@@H](NC(=O)[C@H](CCCNC(=N)N)NC(=O)[C@H](CCSC)NC(=O)[C@H](CO)NC(=O)[C@H](C)NC(=O)[C@H](CCC(=O)O)NC(=O)C(C)(C)NC(=O)[C@H](CC(N)=O)NC(=O)[C@@H](C)NC(=O)[C@H](CC(C)C)NC(=O)[C@H](CCC(=O)O)NC(=O)[C@H](CC(=O)O)NC(=O)[C@H](CC(C)C)NC(=O)[C@H](CC(C)C)NC(=O)[C@H](CCCNC(=N)N)NC(=O)[C@H](CCSC)NC(=O)[C@@H](NC(=O)[C@H](CCC(=O)O)NC(=O)[C@H](Cc1ccc(O)cc1)NC(=O)[C@@H](NC(=O)[C@H](CCCCN)NC(=O)[C@H](CCC(N)=O)NC(=O)[C@H](CC(C)C)NC(=O)[C@@H](NC(=O)[C@H](Cc1c[nH]c2ccccc12)NC(=O)[C@H](CCC(=O)O)NC(=O)[C@H](CCCCN)NC(=O)[C@@H](N)CC(=O)O)[C@@H](C)CC)[C@@H](C)CC)[C@@H](C)CC)C(C)C)C(=O)N[C@@H](Cc1ccc(O)cc1)C(=O)N[C@@H](CCC(=O)O)C(=O)N[C@@H](Cc1ccccc1)C(=O)N[C@@H](CCSC)C(=O)N[C@@H](CCCCN)C(=O)N[C@@H](CCCCN)C(N)=O [SIH-4] (H-DKEWILQKIYEIMRLLDEL[dA]N[Aib]EASMRVSDLIYEFMKK-NH2) | 220 µM (≈ 1020 µg/mL) | 250 to 500 nM |  |  |
| CC[C@H](C)[C@H](NC(=O)[C@H](CCC(=O)O)NC(=O)[C@H](CC(=O)O)NC(=O)[C@H](CO)NC(=O)[C@@H](NC(=O)[C@H](CCCNC(=N)N)NC(=O)[C@H](CCSC)NC(=O)[C@H](CO)NC(=O)[C@H](C)NC(=O)[C@H](CCC(=O)O)NC(=O)C(C)(C)NC(=O)[C@H](CC(=O)O)NC(=O)[C@@H](C)NC(=O)[C@H](CC(C)C)NC(=O)[C@H](CCC(=O)O)NC(=O)[C@H](CC(=O)O)NC(=O)[C@H](CC(C)C)NC(=O)[C@H](CC(C)C)NC(=O)[C@H](CCCNC(=N)N)NC(=O)[C@H](CCSC)NC(=O)[C@H](CCC(=O)O)NC(=O)[C@H](CCC(=O)O)NC(=O)[C@H](Cc1ccc(O)cc1)NC(=O)[C@@H](NC(=O)[C@H](CCCCN)NC(=O)[C@H](CCC(N)=O)NC(=O)[C@H](CC(C)C)NC(=O)[C@@H](NC(=O)[C@H](Cc1c[nH]c2ccccc12)NC(=O)[C@H](CCC(=O)O)NC(=O)[C@H](CCCCN)NC(=O)[C@@H](N)CC(=O)O)[C@@H](C)CC)[C@@H](C)CC)C(C)C)C(=O)N[C@@H](Cc1ccc(O)cc1)C(=O)N[C@@H](CCC(=O)O)C(=O)N[C@@H](Cc1ccccc1)C(=O)N[C@@H](CCSC)C(=O)N[C@@H](CCCCN)C(=O)N[C@@H](CCCCN)C(N)=O [SIH-15] (H-DKEWILQKIYEEMRLLDEL[dA]D[Aib]EASMRVSDEIYEFMKK-NH2) |  | 250 to 500 nM | 1.7 nM | 150000 M⁻¹ s⁻¹ |

From article PMC9512702 (Nature Chemical Biology, 2022)
